Key:
Human 5-lipoxygenase = target: T1, Human 5-lipoxygenase (Homo sapiens, UniProt P09917); assay: Activity of compounds against 5-LO enzyme (LTB4 measurement and/or fluorescence method); assay type: biochemical; conditions: for inhibition at 10 µM: 5-LO, single concentration of 10 uM in duplicate; for IC50: 6 or 11 point dose response in duplicate
T1 construct: purchased Cayman 60402; host or cells: insect cells
T1 sequence (P09917 1-674): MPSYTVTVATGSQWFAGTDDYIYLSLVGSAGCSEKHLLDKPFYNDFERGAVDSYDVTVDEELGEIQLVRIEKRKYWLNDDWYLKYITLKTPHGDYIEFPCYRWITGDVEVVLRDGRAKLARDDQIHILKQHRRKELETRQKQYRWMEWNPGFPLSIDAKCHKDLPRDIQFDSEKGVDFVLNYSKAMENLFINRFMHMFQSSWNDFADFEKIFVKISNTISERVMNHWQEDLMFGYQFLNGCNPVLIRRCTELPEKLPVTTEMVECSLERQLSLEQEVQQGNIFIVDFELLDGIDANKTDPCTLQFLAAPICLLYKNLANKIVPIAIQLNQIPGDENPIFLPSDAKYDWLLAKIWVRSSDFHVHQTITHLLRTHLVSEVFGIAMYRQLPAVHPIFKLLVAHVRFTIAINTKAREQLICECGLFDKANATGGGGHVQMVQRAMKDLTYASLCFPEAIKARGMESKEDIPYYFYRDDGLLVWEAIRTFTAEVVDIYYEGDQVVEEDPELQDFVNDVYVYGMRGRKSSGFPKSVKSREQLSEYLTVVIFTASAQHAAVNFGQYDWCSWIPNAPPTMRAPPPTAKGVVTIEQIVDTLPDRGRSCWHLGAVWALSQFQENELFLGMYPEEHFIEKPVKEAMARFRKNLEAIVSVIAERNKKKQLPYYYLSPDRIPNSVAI
In short: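 Insect-cell human 5-LO preincubated 15 min at RT with compound (pH 7.4, 2 mM CaCl2, 0.1 mM ATP, 1% DMSO), then 3 uM arachidonic acid for 5 min at 37 °C; LTB4 quantified by EIA and/or LC/MS/MS. Alternatively, fluorescence of 5-HpETE via H2DCFDA, 100 uM ATP, 3 uM arachidonic acid, 5 min, RT; single 10 uM screen then 6- or 11-point IC50.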

| Compound | inhibition at 10 µM (Human 5-lipoxygenase) [%] | melting point | IC50 (Human 5-lipoxygenase) [µM] |
| --- | --- | --- | --- |
| CCc1nc2ccc(Cl)cn2c1C(=O)NCc1cc2cc(Cl)ccc2o1 [compound 366, 6-chloro-N-((5-chlorobenzofuran-2-yl)methyl)-2-ethylimidazo[1,2-a]pyridine-3-carboxamide] | < 40 | 223.5 to 225.6 °C | – |
| CCc1nc2ccc(Cl)cn2c1C(=O)NCc1nc2ccc(Cl)cc2n1C [compound 367, 6-chloro-N-((6-chloro-1-methyl-1H-benzo[d]imidazol-2-yl)methyl)-2-ethylimidazo[1,2-a]pyridine-3-carboxamide] | < 40 | > 220 °C | – |
| CCc1nc2ccc(Cl)cn2c1C(=O)NCc1nc2cc(Cl)ccc2n1C [compound 368, 6-chloro-N-((5-chloro-1-methyl-1H-benzo[d]imidazol-2-yl)methyl)-2-ethylimidazo[1,2-a]pyridine-3-carboxamide] | < 40 | > 220 °C | – |
| CCc1nc2ccc(Cl)cn2c1C(=O)NCc1nc2ccc(Cl)cc2o1 [compound 369, 6-chloro-N-((6-chlorobenzo[d]oxazol-2-yl)methyl)-2-ethylimidazo[1,2-a]pyridine-3-carboxamide] | < 40 | 201.1 to 201.8 °C | – |
| CCc1nc2cc(Cl)ccn2c1C(=O)NCc1nc2cc(-c3ccc(OC(F)(F)F)cc3)ccc2o1 [compound 370, 7-chloro-2-ethyl-N-((5-(4-(trifluoromethoxy)phenyl)benzo[d]oxazol-2-yl)methyl)imidazo[1,2-a]pyridine-3-carboxamide] | < 40 | > 220 °C | – |
| CCc1nc2ccc(Cl)cn2c1C(=O)NCc1nc2ccc(Cl)cc2s1 [compound 371, 6-chloro-N-((6-chlorobenzo[d]thiazol-2-yl)methyl)-2-ethylimidazo[1,2-a]pyridine-3-carboxamide] | < 40 | > 220 °C | – |
| CCc1nc2cc(Cl)ccn2c1C(=O)NCc1nc2ccc(-c3ccc(OC(F)(F)F)cc3)cc2o1 [compound 374, 7-chloro-2-ethyl-N-((6-(4-(trifluoromethoxy)phenyl)benzo[d]oxazol-2-yl)methyl)imidazo[1,2-a]pyridine-3-carboxamide] | < 40 | > 220 °C | – |
| CCc1nc2cc(Cl)ccn2c1C(=O)NCc1ccc(N2CC(Cc3ccc(F)cc3)OC2=O)cc1 (stereo not shown) [compound 377, 7-chloro-2-ethyl-N-(4-(5-(4-fluorobenzyl)-2-oxooxazolidin-3-yl)benzyl)imidazo[1,2-a]pyridine-3-carboxamide] | < 40 | > 96.9 °C (dec.) | – |
| CCc1nc2cc(Cl)ccn2c1C(=O)NCc1ccc(N2CC(COc3ccc(F)cc3)OC2=O)cc1 (stereo not shown) [compound 378, 7-chloro-2-ethyl-N-(4-(5-((4-fluorophenoxy)methyl)-2-oxooxazolidin-3-yl)benzyl)imidazo[1,2-a]pyridine-3-carboxamide] | < 40 | > 97.1 °C | – |
| CCc1nc2ccc(Cl)cn2c1C(=O)N1CCC(Oc2ccc(OC(F)(F)F)cc2)CC1 [compound 384, (6-Chloro-2-ethylimidazo[1,2-a]pyridin-3-yl)(4-(4-(trifluoromethoxy)phenoxy)piperidin-1-yl)methanone] | – | 80.7 °C | 1 to 20 |
| CCc1nc2ncccn2c1C(=O)NCc1ccc(-c2ccc(Cl)cc2)cc1 [compound 386, N-((4′-Chloro-[1,1′-biphenyl]-4-yl)methyl)-2-ethylimidazo[1,2-a]pyrimidine-3-carboxamide] | – | 184.8 °C | 1 to 20 |

Continued, values first:

| inhibition at 10 µM (Human 5-lipoxygenase) [%] | melting point | IC50 (Human 5-lipoxygenase) [µM] | Compound |
| --- | --- | --- | --- |
| < 40 | > 167.9 °C (dec.) | – | CCc1nc2ccc(F)cn2c1C(=O)NCc1ccc(N2CCC(c3ccc(OC(F)(F)F)cc3)CC2)cc1 [compound 372, 2-ethyl-6-fluoro-N-(4-(4-(4-(trifluoromethoxy)phenyl)piperidin-1-yl)benzyl)imidazo[1,2-a]pyridine-3-carboxamide] |
| 40 to 69 | > 177.7 °C (dec.) | – | CCc1nc2c(F)cccn2c1C(=O)NCc1ccc(N2CCC(c3ccc(OC(F)(F)F)cc3)CC2)cc1 [compound 373, 2-ethyl-8-fluoro-N-(4-(4-(4-(trifluoromethoxy)phenyl)piperidin-1-yl)benzyl)imidazo[1,2-a]pyridine-3-carboxamide] |
| – | 148.6 to 148.8 °C | 1 to 20 | CCc1nc2ccc(Cl)cn2c1CNc1ccc(Oc2ccc(F)cc2)cc1 [compound 379, N-((6-Chloro-2-ethylimidazo[1,2-a]pyridin-3-yl)methyl)-4-(4-fluorophenoxy)aniline] |
| – | 102 °C | > 20 | CCc1nc2ccc(Cl)cn2c1CNc1ccc(-c2ccc(OC(F)(F)F)cc2)cc1 [compound 383, N-((6-chloro-2-ethylimidazo[1,2-a]pyridin-3-yl)methyl)-4′-(trifluoromethoxy)biphenyl-4-amine] |
| – | 159.5 °C | 1 to 20 | CCc1nc2ccc(Cl)cn2c1CNc1ccc(N2CCC(c3ccc(Cl)cc3)CC2)cc1 [compound 392, N-((6-chloro-2-ethylimidazo[1,2-a]pyridin-3-yl)methyl)-4-(4-(4-chlorophenyl)piperidin-1-yl)aniline] |
| – | 210.7 °C | < 1 | CCc1nc2ncccn2c1CNc1ccc(N2CCN(c3ccc(F)cc3)CC2)cc1 [compound 395, N-((2-Ethylimidazo[1,2-a]pyrimidin-3-yl)methyl)-4-(4-(4-fluorophenyl)piperazin-1-yl)aniline] |
| – | 192.7 °C | < 1 | CCc1nc2cccnn2c1CNc1ccc(N2CCN(c3ccc(F)cc3)CC2)cc1 [compound 396, N-((2-Ethylimidazo[1,2-b]pyridazin-3-yl)methyl)-4-(4-(4-fluorophenyl)piperazin-1-yl)aniline] |
| – | 161.3 °C | < 1 | CCc1nc2ccc(Cl)cn2c1COc1ccc(N2CCN(c3ccc(F)cc3)CC2)cc1 [compound 399, 6-chloro-2-ethyl-3-((4-(4-(4-fluorophenyl)piperazin-1-yl)phenoxy)methyl)imidazo[1,2-a]pyridine] |
| – | 167.5 °C | < 1 | CCc1nc2cc(Cl)ccn2c1COc1ccc(N2CCN(c3ccc(F)cc3)CC2)cc1 [compound 400, 7-chloro-2-ethyl-3-((4-(4-(4-fluorophenyl)piperazin-1-yl)phenoxy)methyl)imidazo[1,2-a]pyridine] |
| – | 228.8 °C | < 1 | Cc1nc2cccc(C)n2c1CNc1ccc(N2CCC(c3ccc(F)cc3)CC2)cc1 [compound 401, N-((2,5-dimethylimidazo[1,2-a]pyridin-3-yl)methyl)-4-(4-(4-fluorophenyl)piperidin-1-yl)aniline] |
| – | 196.4 °C | < 1 | Cc1nc2cccc(C)n2c1CNc1ccc(N2CCN(c3ccc(F)cc3)CC2)cc1 [compound 402, N-((2,5-dimethylimidazo[1,2-a]pyridin-3-yl)methyl)-4-(4-(4-fluorophenyl)piperazin-1-yl)aniline] |
| – | 224.7 °C | < 1 | CCc1nc2ccc(F)cn2c1C(=O)NC1CCN(c2ccc(Nc3ccccc3)cc2)C1 (stereo not shown) [compound 403, 2-Ethyl-6-fluoro-N-(1-(4-(phenylamino)phenyl)pyrrolidin-3-yl)imidazo[1,2-a]pyridine-3-carboxamide] |
